SMILES strings stand for the structures.

We go through 28 compounds from US9085555B2, “Complement pathway modulators and uses thereof” (priority 2011, dated 2015).

The experiment deals with Factor D (Homo sapiens (Human), UniProt P00746). The experiment in a line: biochemical. It is filed as biochemical. The conditions noted are these: read-out: IC50.
Chain of Factor D (P00746 26-253): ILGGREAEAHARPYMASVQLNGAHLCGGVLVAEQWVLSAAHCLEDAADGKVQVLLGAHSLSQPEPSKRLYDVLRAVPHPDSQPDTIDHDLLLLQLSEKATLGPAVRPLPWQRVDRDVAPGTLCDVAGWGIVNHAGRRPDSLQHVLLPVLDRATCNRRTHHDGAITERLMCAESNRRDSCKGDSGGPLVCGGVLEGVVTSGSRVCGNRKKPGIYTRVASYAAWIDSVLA
The term IC50 denotes the midpoint of a concentration-inhibition curve. For the compound `CC(C)(O)COc1ccc2c(c1)c(NC(=O)N1C3CC3C[C@H]1C(=O)NCc1cccc(Cl)c1F)cn2C(N)=O` (stereo partly drawn) [Example 386, 1R,3S,5R)-2-Aza-bicyclo[3.1.0]hexane-2,3-dicarboxylic acid 2-{[1-carbamoyl-5-(2-hydroxy-2-methyl-propoxy)-1H-indol-3-yl]-amide}3-(3-chloro-2-fluoro-benzylamide], the 50% inhibitory concentration (IC50) came out at 8 nM. With `C[C@@]1(F)C[C@@H](C(=O)NCc2cccc(Cl)c2F)N(C(=O)Nc2cn(C(N)=O)c3ccccc23)C1` [Example 205, (2S,4R)-4-Fluoro-4-methyl-pyrrolidine-1,2-dicarboxylic acid 1-[(1-carbamoyl-1H-indol-3-yl)-amide] 2-(3-chloro-2-fluoro-benzylamide)], the IC50 was determined as 14 nM. `C[C@@]1(F)C[C@@H](C(=O)N[C@H](CO)c2cccc(Cl)c2F)N(C(=O)Nc2cn(C(N)=O)c3ccccc23)C1` [Example 239, (2S,4R)-4-Fluoro-4-methyl-pyrrolidine-1,2-dicarboxylic acid 1-[(1-carbamoyl-1H-indol-3-yl)-amide] 2-{[(S)-1-(3-chloro-2-fluoro-phenyl)-2-hydroxy-ethyl]-amide}]: the IC50 is 52 nM.

Take `Cc1cc2c(C(N)=O)nn(CC(=O)N3[C@H](C(=O)Nc4cccc(Br)n4)C[C@@]4(C)C[C@@H]34)c2cn1` [Example 745, 1-{2-[(1R,3S,5R)-3-(6-Bromo-pyridin-2-ylcarbamoyl)-5-methyl-2-aza-bicyclo[3.1.0]hex-2-yl]-2-oxo-ethyl}-5-methyl-1H-pyrazolo[3,4-c]pyridine-3-carboxylic acid amide]: the half-maximal inhibitory concentration (IC50) worked out at 5 nM. For the compound `CC(=O)c1cn(CC(=O)N2[C@@H]3C[C@@H]3C[C@H]2C(=O)NCc2cccc(Cl)c2F)c2ncncc12` [Example 649, (1R,3S,5R)-2-[2-(5-Acetyl-pyrrolo[2,3-d]pyrimidin-7-yl)-acetyl]-2-aza-bicyclo [3.1.0]hexane-3-carboxylic acid 3-chloro-2-fluoro-benzylamide], the IC50 came out at 441 nM. With `NC(=O)n1cc(NC(=O)N2C[C@H](F)C[C@H]2C(=O)Nc2cc(Cl)cc(C(=O)O)c2)c2ccccc21` [Example 339, 3-Chloro-5-{[(2S,4R)-1-(1-carbamoyl-1H-indol-3-ylcarbamoyl)-4-fluoro-pyrrolidine-2-carbonyl]-amino}-benzoic acid], the 50% inhibitory concentration (IC50) was found to be 65 nM.

Consider `NC(=O)n1cc(NC(=O)N2C[C@](O)(CO)C[C@H]2C(=O)NCc2cccc(Cl)c2F)c2ccccc21` [Example 202, (2S,4S)-4-Hydroxy-4-hydroxymethyl-pyrrolidine-1,2-dicarboxylic acid 1-[(1-carbamoyl-1H-indol-3-yl)-amide] 2-(3-chloro-2-fluoro-benzylamide)], for which the IC50 was determined as 450 nM. For `NC(=O)n1cc(NC(=O)N2C[C@H](F)C[C@H]2C(=O)Nc2cc(C(=O)O)cc(Br)c2F)c2ccccc21` [Example 343, 3-Bromo-5-{[(2S,4R)-1-(1-carbamoyl-1H-indol-3-ylcarbamoyl)-4-fluoro-pyrrolidine-2-carbonyl]-amino}-4-fluoro-benzoic acid], the IC50 is 30 nM. As to `NC(=O)n1cc(CC(=O)N2[C@@H]3C[C@@H]3C[C@H]2C(=O)NCc2cccc(Cl)c2F)c2ccc(CC(=O)O)cc21` [Example 473, (1-Carbamoyl-3-{2-[(1R,3S,5R)-3-(3-chloro-2-fluoro-benzylcarbamoyl)-2-aza-bicyclo[3.1.0]hex-2-yl]-2-oxo-ethyl}-1H-indol-6-yl)-acetic acid], the IC50 turned out to be 463 nM.

As to `NC(=O)c1nn(CC(=O)N2[C@@H]3C[C@@H]3C[C@H]2C(=O)Nc2cccc(OC(F)(F)F)c2F)c2ccccc12` [Example 707, 1-{2-[(1R,3S,5R)-3-(2-Fluoro-3-trifluoromethoxy-phenylcarbamoyl)-2-aza-bicyclo[3.1.0]hex-2-yl]-2-oxo-ethyl}-1H-indazole-3-carboxylic acid amide], the 50% inhibitory concentration (IC50) turned out to be 88 nM. For the compound `C[C@@]12C[C@@H](C(=O)Nc3cccc(Br)n3)N(C(=O)Cn3nc(C(N)=O)c4ccccc43)[C@@H]1C2` [Example 744, 1-{2-[(1R,3S,5R)-3-(6-Bromo-pyridin-2-ylcarbamoyl)-5-methyl-2-aza-bicyclo[3.1.0]hex-2-yl]-2-oxo-ethyl}-1H-indazole-3-carboxylic acid amide], the half-maximal inhibitory concentration (IC50) was 4 nM. In the case of `NC(=O)c1nn(CC(=O)N2[C@@H]3C[C@@H]3C[C@H]2C(=O)NCc2cccc(Cl)c2F)c2cnccc12` [Example 703, 1-(2-((1R,3S,5R)-3-((3-Chloro-2-fluorobenzyl)carbamoyl)-2-azabicyclo[3.1.0]hexan-2-yl)-2-oxoethyl)-1H-pyrazolo[3,4-c]pyridine-3-carboxamide] it was 10 nM.

Regarding `COc1ccc2c(c1)c(NC(=O)N1C[C@H](F)C[C@H]1C(=O)Nc1cccc(OC(F)(F)F)c1F)cn2C(N)=O` [Example 298, (2S,4R)-4-Fluoro-pyrrolidine-1,2-dicarboxylic acid 1-[(1-carbamoyl-5-methoxy-1H-indol-3-yl)-amide] 2-[(2-fluoro-3-trifluoromethoxy-phenyl)-amide]], the IC50 came out at 7 nM. In the case of `Cc1ccc2c(NC(=O)N3CCC[C@H]3C(=O)Nc3cccc(OC(F)(F)F)c3)cn(C(N)=O)c2c1` [Example 269], the IC50 came out at 1600 nM.

Take `CC(C)(C)n1nnnc1-c1cc(Br)cc(NC(=O)[C@@H]2C[C@H]3C[C@H]3N2C(=O)Nc2cn(C(N)=O)c3ccccc23)c1` [Example 345, (1R,3S,5R)-2-Aza-bicyclo[3.1.0]hexane-2,3-dicarboxylic acid 3-{[3-bromo-5-(1-tert-butyl-1H-tetrazol-5-yl)-phenyl]-amide}2-[(1-carbamoyl-1H-indol-3-yl)-amide]]: the IC50 amounted to 800 nM.

As for `NC(=O)c1nn(CC(=O)N2C[C@H](F)C[C@H]2C(=O)Nc2cccc(OC(F)(F)F)c2F)c2ccccc12` [Example 708], the IC50 turned out to be 54 nM. For the compound `NC(=O)n1cc(CC(=O)N2NCCC2C(=O)NCc2cccc(Cl)c2)c2ccccc21` (stereo not shown) [Example 469, 3-{2-[5-(3-Chloro-benzylcarbamoyl)-pyrazolidin-1-yl]-2-oxo-ethyl}-indole-1-carboxylic acid amide], the IC50 was 3350 nM.

With `NC(=O)c1nn(CC(=O)N2[C@@H]3C[C@@H]3C[C@H]2C(=O)NCc2cccc(Cl)c2F)c2c[n+]([O-])ccc12` [Example 705, 3-Carbamoyl-1-(2-((1R,3S,5R)-3-(3-chloro-2-fluorobenzylcarbamoyl)-2-azabicyclo[3.1.0]hexan-2-yl)-2-oxoethyl)-1H-pyrazolo[3,4-c]pyridine 6-oxide], the IC50 amounted to 21 nM.

Take `CC(C)(C)OC(=O)COc1ccc2c(c1)c(NC(=O)N1[C@@H]3C[C@@H]3C[C@H]1C(=O)NCc1ccccc1F)cn2C(N)=O` [Example 390, (1-Carbamoyl-3-{[(1R,3S,5R)-3-(2-fluoro-benzylcarbamoyl)-2-aza-bicyclo[3.1.0]hexane-2-carbonyl]-amino}-1H-indol-5-yloxy)-acetic acid tert-butyl ester]: the 50% inhibitory concentration (IC50) was 38 nM.

Turning to `CC1(C)SC[C@@H](C(=O)Nc2cccc(OC(F)(F)F)c2)N1C(=O)Nc1cn(C(N)=O)c2ccccc12` [Example 151, (R)-2,2-Dimethyl-thiazolidine-3,4-dicarboxylic acid 3-[(1-carbamoyl-1H-indol-3-yl)-amide] 4-[(3-trifluoromethoxy-phenyl)-amide]], the 50% inhibitory concentration (IC50) is 9320 nM. On to `CC(=O)c1cn(CC(=O)N2C[C@@H]3C[C@@H]3[C@H]2C(=O)NCc2cccc(Cl)c2F)c2cnccc12` [Example 544, (1S,2S,5R)-3-[2-(3-Acetyl-pyrrolo[2,3-c]pyridin-1-yl)-acetyl]-3-aza-bicyclo[3.1.0] hexane-2-carboxylic acid 3-chloro-2-fluoro-benzylamide], for which the IC50 was found to be 1110 nM. Turning to `COC(=O)COc1ccc2c(NC(=O)N3[C@@H]4C[C@@H]4C[C@H]3C(=O)Nc3cccc(OC(F)(F)F)c3)cn(C(N)=O)c2c1` [Example 276, (1-Carbamoyl-3-{[(1R,3S,5R)-3-(3-trifluoromethoxy-phenylcarbamoyl)-2-aza-bicyclo[3.1.0]hexane-2-carbonyl]-amino}-1H-indol-6-yloxy)-acetic acid methyl ester], the 50% inhibitory concentration (IC50) stood at 1310 nM. In the case of `NC(=O)n1cc(NC(=O)N2C[C@@H](N)C[C@H]2C(=O)NCc2cccc(-c3ccccc3)c2)c2ccccc21` [Example 39, (2S,4S)-4-Amino-pyrrolidine-1,2-dicarboxylic acid 2-[(biphenyl-3-ylmethyl)-amide] 1-[(1-carbamoyl-1H-indol-3-yl)-amide]] it was 1050 nM; in that of `NC(=O)n1cc(NC(=O)N2C[C@H](F)C[C@H]2C(=O)NCc2cccc(C(F)(F)F)c2F)c2ccccc21` [Example 222, (2S,4R)-4-Fluoro-pyrrolidine-1,2-dicarboxylic acid 1-[(1-carbamoyl-1H-indol-3-yl)-amide] 2-(2-fluoro-3-trifluoromethyl-benzylamide)], 137 nM; in that of `NC(=O)n1cc(NC(=O)N2CC[C@@H](F)[C@H]2C(=O)NCc2cccc(Cl)c2)c2ccccc21` [Example 349, 2R,3R)-3-Fluoro-pyrrolidine-1,2-dicarboxylic acid 1-[(1-carbamoyl-1H-indol-3-yl)-amide]2-(3-chloro-benzylamide], 150 nM. Turning to `NC(=O)n1cc(NC(=O)N2[C@@H]3C[C@@H]3C[C@H]2C(=O)N[C@H](CO)c2cccc(Cl)c2F)c2ccccc21` [Example 203, (1R,3S,5R)-2-Aza-bicyclo[3.1.0]hexane-2,3-dicarboxylic acid 2-[(1-carbamoyl-1H-indol-3-yl)-amide] 3-{[(S)-1-(3-chloro-2-fluoro-phenyl)-2-hydroxy-ethyl]-amide}], the IC50 amounted to 6 nM. Consider `CC(=O)c1cn(CC(=O)N2[C@@H]3C[C@@H]3C[C@H]2C(=O)NCc2cccc(Cl)c2F)c2cc(CC(=O)O)ccc12` [Example 596, (3-Acetyl-1-{2-[(1R,3S,5R)-3-(3-chloro-2-fluoro-benzylcarbamoyl)-2-aza-bicyclo[3.1.0]hex-2-yl]-2-oxo-ethyl}-1H-indol-6-yl)-acetic acid], for which the IC50 was found to be 95 nM. As to `CC(=O)c1cn(CC(=O)N2C[C@H](F)C[C@H]2C(=O)NCc2cccc(Cl)c2F)c2cc(CO)ccc12` [Example 604, (2S,4R)-1-[2-(3-Acetyl-6-hydroxymethyl-indol-1-yl)-acetyl]-4-fluoro-pyrrolidine-2-carboxylic acid 3-chloro-2-fluoro-benzylamide], the half-maximal inhibitory concentration (IC50) stood at 37 nM.
